This is an account of results in patent US20250388575A1, “HETEROBIFUNCTIONAL COMPOUNDS AND METHODS OF TREATING DISEASE” (Halda Therapeutics OpCo, Inc., priority 2022, published 2025).

In general, GI50 refers to the concentration that inhibits growth by half. Read a low GI50 as greater sensitivity of the cells. In general, IC50 refers to the concentration that inhibits the measured activity by half. Low readings indicate higher potency, high ones lower potency. In general, Ki refers to the equilibrium dissociation constant of an inhibitor or competing ligand from its target. A higher Ki goes with a looser hold on the target. As usually defined, the Kd is a measure of binding affinity in units of concentration. Lower therefore signals higher affinity.

Experiment [1] concerns T-Rex 293 cell line SC cells having increased expression of progesterone receptor isoform B protein. The experiment in a line: Cellular growth inhibition, T-Rex 293 SC cells with increased progesterone receptor isoform B expression (doxycycline), CellTiter-Glo. The class given is cell-based. The conditions noted are these: progesterone receptor isoform B induced with 10 ng/mL doxycycline, 72 hours. As to the method: (§1) The following types of cells were prepared for this experiment: (i) a T-Rex 293 cell line having increased expression of progesterone receptor isoform B protein due to exposure to doxycycline and (ii) a T-Rex 293 cell line lacking increased expression of progesterone receptor isoform B protein. Ability of the test compounds to inhibit proliferation of the foregoing cell types was evaluated according to the procedures set forth below.
(§2) The doxycycline-inducible progesterone receptor isoform B protein expressing cell line was established using the following protocol: T-Rex 293 cells were purchased from Invitrogen (Cat #R71007) and transfected using Lipofectamine 2000 with the wild-type progesterone receptor B protein sequence cloned into the pcDNA4/TO vector. Transfected cells were selected using 400 μg/mL Zeocin (Invitrogen Cat #R25001). Following selection, single clones were raised and maintained in Dulbecco's Modified Eagle Medium (DMEM) supplemented with 10% w/w Tetracycline-free fetal bovine serum (FBS) and 250 μg/mL Zeocin. Clones were analyzed for expression of progesterone receptor isoform B protein in the presence and absence of 10 ng/ml doxycycline (Sigma Cat #D9891), and a single doxycycline-inducible clone (hereinafter “SC”) was selected for use in downstream assays.
(§3) The SC cells were seeded on poly-D-lysine coated, black clear-bottom 384-well plates at 2500/well, in 25 μL Phenol Red Free Dulbecco's Modified Eagle Medium (DMEM) supplemented with 10% w/w charcoal-dextran treated fetal bovine serum (FBS) and 1% w/w pen-strep, with or without 10 ng/mL doxycycline. Pen-Strep is a commercially available mixture of penicillin G and streptomycin, which is used in mammalian cell culture media to prevent bacterial contamination. Phenol Red Free Dulbecco's Modified Eagle Medium (DMEM) supplemented with 10% w/w charcoal-dextran treated fetal bovine serum (FBS) and 1% w/w pen-strep, with or without 10 ng/mL doxycycline is herein referred to as Treatment Medium. Following seeding of cells in the plates, the plates were spun at 300×g for 30 seconds, then equilibrated to room temperature for 30 minutes, and then deposited in a humidified tissue culture incubator maintained at 37° C. with 5% CO2.
(§4) At 24 hours after seeding of the cells, dilutions of test compound were prepared in DMSO and dissolved in Treatment Medium, to achieve a final DMSO concentration of 0.5% w/w, thereby providing the Test Compound Solution. A 25 μL aliquot of the Test Compound Solution was added to cells in the well plates. An equal volume of a solution containing DMSO and Treatment Medium was used as a negative control. Following treatment of cells with Test Compound Solution or said equal volume of a solution containing DMSO and Treatment Medium, the plates were spun at 300×g for 30 seconds, and then left in an incubator for 72 hours.
(§5) At the end of the treatment duration, cell viability was quantified with CellTiter-Glo 2.0 reagent (Promega Cat #G9243). For this purpose, plates were equilibrated to room temperature for 30 minutes, and then 25 μL of CellTiter-Glo 2.0 reagent was added to cells in the plate wells. Plates were then agitated on a shaker for two minutes at 500 rpm and subsequently incubated at room temperature for 10 minutes. Following incubation, the plates were spun at 3000×g for 30 seconds, then sealed with an optical adhesive cover, and luminescence readings were measured with an EnVision Plate Reader (Perkin Elmer).
(§6) Data was normalized using zero luminescence for baseline. A four-parameter non-linear regression curve fit was applied to dose-response data in GraphPad Prism data analysis software to determine the half-maximal growth inhibitory concentration (GI50) for each test compound.
(In general: ATP-based viability assays read luminescence as a measure of living cells.)

Experiment [2] concerns T-Rex 293 cell line SC cells lacking increased expression of progesterone receptor isoform B protein. The experiment in a line: Cellular growth inhibition, T-Rex 293 SC cells lacking increased progesterone receptor isoform B expression (no doxycycline), CellTiter-Glo. The class given is cell-based. The conditions noted are these: T-Rex 293 SC cells not exposed to doxycycline, 72 hours. As to the method:
as §1, §2, §3, §4, §5, §6

Experiment [3] deals with progesterone receptor ligand binding domain (LBD) (Homo sapiens (Human), UniProt P06401). The experiment in a line: FP assay for binding affinity to progesterone receptor (PolarScreen Progesterone Receptor Competitor Assay). The conditions noted are these: GST-tagged PR LBD, Fluormone tracer, fluorescence polarization, 2 hours at room temperature. As to the method:
Compounds were tested using the PolarScreen™ Progesterone Receptor Competitor Assay Kit (Life Technologies Cat #A15905 or a15906), as per the manufacturer's instructions. Briefly, GST-tagged PR LBD, Fluormone tracer, and compound were mixed and incubated for 2 hours at room temperature in the dark. Following incubation, the plates were spun at 3000×g for 30 seconds, then sealed with an optical adhesive cover, and fluorescence polarization was measured using appropriate excitation and emission filters with an EnVision Plate Reader (Perkin Elmer). Compound concentration vs. mP value were plotted in Prism (GraphPad). A four-parameter non-linear regression curve fit was applied to dose-response data to determine the half-maximal inhibitory concentration (IC50) for each test compound.

For another experiment, the target named is progesterone receptor (Homo sapiens, UniProt P06401). Put plainly: PR Human Progesterone NHR Binding (Agonist Radioligand) Assay, [3H]progesterone, T47D cytosol. The following applies: 0.5 nM [3H]progesterone, T47D cytosolic fractions, 1 hour at 4° C., legend words it as Kd. As to the method: Compounds were tested using the PR Human Progesterone NHR Binding (Agonist Radioligand) Assay, Cerep at Eurofins Discovery using a modified version of the protocol from Sarup et al. (Cancer Res 1988; 48:5071-5078). Briefly, cytosolic fractions of T47D cells were incubated with 0.5 nM [^3H]progesterone for 1 hour at 4° C. in the absence or presence of the test compound. Nonspecific binding was determined in the presence of 1 μM promegestone. Reactions were subjected to scintillation counting. Results are expressed as a percent inhibition of the control radioligand specific binding.
progesterone receptor, sequence (P06401 whole entry, looked up): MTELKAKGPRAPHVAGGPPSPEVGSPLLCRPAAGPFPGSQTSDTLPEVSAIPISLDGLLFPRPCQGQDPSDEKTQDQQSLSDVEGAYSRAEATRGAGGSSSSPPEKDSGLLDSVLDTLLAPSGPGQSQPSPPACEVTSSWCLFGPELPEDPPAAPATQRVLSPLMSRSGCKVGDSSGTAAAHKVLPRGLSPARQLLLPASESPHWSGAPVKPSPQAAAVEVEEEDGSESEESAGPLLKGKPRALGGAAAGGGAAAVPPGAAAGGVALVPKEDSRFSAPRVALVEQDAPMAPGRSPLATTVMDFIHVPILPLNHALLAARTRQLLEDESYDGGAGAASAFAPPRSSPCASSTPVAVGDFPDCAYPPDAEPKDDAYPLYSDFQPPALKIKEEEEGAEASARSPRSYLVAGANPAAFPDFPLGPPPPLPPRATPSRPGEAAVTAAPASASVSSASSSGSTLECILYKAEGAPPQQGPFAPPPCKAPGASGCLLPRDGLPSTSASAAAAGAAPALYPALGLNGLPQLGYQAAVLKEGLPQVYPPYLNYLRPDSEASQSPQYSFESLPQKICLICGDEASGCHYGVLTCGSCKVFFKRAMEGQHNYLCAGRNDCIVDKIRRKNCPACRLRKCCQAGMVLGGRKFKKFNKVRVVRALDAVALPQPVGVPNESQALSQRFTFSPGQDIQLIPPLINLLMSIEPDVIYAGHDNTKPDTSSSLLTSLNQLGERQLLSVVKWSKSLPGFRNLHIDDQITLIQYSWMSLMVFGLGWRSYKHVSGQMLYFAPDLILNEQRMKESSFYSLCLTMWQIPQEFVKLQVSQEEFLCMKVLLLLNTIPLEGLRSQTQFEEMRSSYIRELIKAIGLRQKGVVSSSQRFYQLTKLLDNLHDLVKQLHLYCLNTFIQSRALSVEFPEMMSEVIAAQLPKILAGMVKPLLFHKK

The next experiment concerns the target androgen receptor (Homo sapiens, UniProt P10275). The experiment in a line: Assay for binding affinity to androgen receptor ([3H]methyltrienolone radioligand, cell cytosol). The following applies: binding to the androgen receptor, 1 nM [3H]methyltrienolone, 24 hr at 4° C. As to the method: Fractions of cell cytosol (106 cell/point) were incubated for 24 hr at 4° C. with 1 nM [^3H]methyltrienolone in the absence or presence of the test compound in a buffer containing 25 mM Hepes-Tris (pH 7.4), 1 mM EDTA, 10 mM Na2MoO4, 2 mM DTT, 5 µM triamcinolone acetonide, and 10% glycerol. Nonspecific binding was determined in the presence of 1 μM testosterone. Following incubation, the samples were filtered rapidly under vacuum through glass fiber filters (GF/B, Packard) presoaked with 0.3% PEI and rinsed several times with ice-cold 50 mM Tris-HCl using a 96-sample cell harvester (Unifilter, Packard). The filters were dried then counted for radioactivity in a scintillation counter (Topcount, Packard) using a scintillation cocktail (Microscint 0, Packard). The results are expressed as a percent inhibition of the control radioligand specific binding. The standard reference compound is testosterone, which is tested in each experiment at several concentrations to obtain a competition curve from which its IC50 is calculated.

Molecules are shown by their SMILES.

progesterone receptor ligand binding domain (LBD), sequence (P06401 679-913): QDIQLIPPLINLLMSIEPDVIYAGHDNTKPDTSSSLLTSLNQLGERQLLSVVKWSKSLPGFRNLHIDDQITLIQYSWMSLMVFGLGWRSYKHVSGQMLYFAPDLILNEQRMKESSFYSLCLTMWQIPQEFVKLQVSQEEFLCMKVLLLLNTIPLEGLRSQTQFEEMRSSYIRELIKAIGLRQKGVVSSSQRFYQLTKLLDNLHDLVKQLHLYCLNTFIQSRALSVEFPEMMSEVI
androgen receptor, sequence (P10275 whole entry, looked up): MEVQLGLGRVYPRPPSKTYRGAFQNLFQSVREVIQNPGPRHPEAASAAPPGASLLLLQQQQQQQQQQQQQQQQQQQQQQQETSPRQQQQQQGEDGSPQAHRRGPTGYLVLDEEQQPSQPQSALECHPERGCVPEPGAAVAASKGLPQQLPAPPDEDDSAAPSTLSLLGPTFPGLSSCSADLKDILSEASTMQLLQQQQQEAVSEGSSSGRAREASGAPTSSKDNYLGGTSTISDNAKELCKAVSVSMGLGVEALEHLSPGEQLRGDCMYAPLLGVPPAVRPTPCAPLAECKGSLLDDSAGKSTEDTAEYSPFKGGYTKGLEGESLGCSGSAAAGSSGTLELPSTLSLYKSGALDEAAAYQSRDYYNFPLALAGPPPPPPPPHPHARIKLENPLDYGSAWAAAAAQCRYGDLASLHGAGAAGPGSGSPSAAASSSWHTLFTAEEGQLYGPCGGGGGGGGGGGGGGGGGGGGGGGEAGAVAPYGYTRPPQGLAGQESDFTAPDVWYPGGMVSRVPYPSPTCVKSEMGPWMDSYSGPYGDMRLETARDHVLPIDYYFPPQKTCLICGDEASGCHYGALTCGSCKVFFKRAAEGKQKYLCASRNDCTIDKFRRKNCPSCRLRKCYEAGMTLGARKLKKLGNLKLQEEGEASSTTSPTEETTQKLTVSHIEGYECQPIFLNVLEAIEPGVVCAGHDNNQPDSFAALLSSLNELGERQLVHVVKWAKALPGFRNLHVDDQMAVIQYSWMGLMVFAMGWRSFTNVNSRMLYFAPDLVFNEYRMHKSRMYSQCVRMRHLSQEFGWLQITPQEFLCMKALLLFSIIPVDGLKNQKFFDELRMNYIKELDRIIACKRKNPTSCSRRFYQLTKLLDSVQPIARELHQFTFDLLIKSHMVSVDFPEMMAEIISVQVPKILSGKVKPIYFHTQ

As to `CCS(=O)(=O)Nc1ccc(Oc2cccc(OCCOC3CCN(c4ccc(C(=O)N[C@H]5CC[C@H](Oc6ccc(C#N)c(Cl)c6)CC5)nn4)CC3)c2)c(-c2cn(C)c(=O)c3[nH]ccc23)c1` [I-1, N-[4-(3-chloro-4-cyano-phenoxy)cyclohexyl]-6-[4-[2-[3-[4-(ethylsulfonylamino)-2-(6-methyl-7-oxo-1H-pyrrolo[2,3-c]pyridin-4-yl)phenoxy]phenoxy]ethoxy]-1-piperidyl]pyridazine-3-carboxamide], the GI50 in experiment [1] and in experiment [2] was < 500 nM in each case. The compound also showed a concentration for half-maximal inhibition (IC50) in experiment [3] of 500 to 2500 nM. Besides, at progesterone receptor, the Ki lay in the range of 500 to 2500 nM. `CCS(=O)(=O)c1ccc(Oc2cccc(CCCOC3CC4(C3)CN(c3ccc(C(=O)N[C@H]5CC[C@H](Oc6ccc(C#N)c(Cl)c6)CC5)nn3)C4)c2F)c(-c2cn(C)c(=O)c3[nH]ccc23)c1` [I-46]: the GI50 in experiment [1] and in experiment [2] was < 500 nM throughout.

Turning to `CCS(=O)(=O)c1ccc(Oc2cccc(CCC3CCN(c4ccc(C(=O)N[C@H]5CC[C@H](Oc6ccc(C#N)c(Cl)c6)CC5)nn4)CC3)c2F)c(-c2cn(C)c(=O)c3[nH]ccc23)c1` [I-51], the IC50 in experiment [3] was in the range of 50 to 500 nM. Compound `CCS(=O)(=O)c1ccc(Oc2cccc(CCCC3CCN(c4ccc(C(=O)N[C@H]5CC[C@H](Oc6ccc(C#N)c(Cl)c6)CC5)nn4)CC3)c2F)c(-c2cn(C)c(=O)c3[nH]ccc23)c1` [I-52] gave an IC50 in experiment [3] of 50 to 500 nM. As for `CCS(=O)(=O)c1ccc(Oc2cc(F)c(CCC3CCN(c4ccc(C(=O)N[C@H]5CC[C@H](Oc6ccc(C#N)c(Cl)c6)CC5)nn4)CC3)cc2F)c(-c2cn(C)c(=O)c3[nH]ccc23)c1` [I-59], the GI50 in experiment [1] was < 500 nM; in experiment [2], 500 to 1500 nM. On the same counts, the results for `Cn1cc(-c2cc(C(C)(C)O)ccc2Oc2ccc(OC3CN(c4ccc(C(=O)N[C@H]5CC[C@H](Oc6ccc(C#N)c(Cl)c6)CC5)nn4)C3)cc2)c2cc[nH]c2c1=O` [I-95, N-[4-(3-chloro-4-cyano-phenoxy)cyclohexyl]-6-[3-[4-[4-(1-hydroxy-1-methyl-ethyl)-2-(6-methyl-7-oxo-1H-pyrrolo[2,3-c]pyridin-4-yl)phenoxy]phenoxy]azetidin-1-yl]pyridazine-3-carboxamide] are < 500 nM and < 500 nM. As to `Cn1cc(-c2cc(C(C)(C)O)ccc2Oc2ccc(CCC3CCN(c4ccc(C(=O)N[C@H]5CC[C@H](Oc6ccc(C#N)c(Cl)c6)CC5)nn4)CC3)cc2)c2cc[nH]c2c1=O` [I-102], the GI50 in experiment [1] and in experiment [2] was < 500 nM in each case. The equilibrium dissociation constant (Kd) at androgen receptor fell in the range of 50 to 500 nM. `Cn1cc(-c2cc(C(C)(C)O)ccc2Oc2c(F)cc(CCOC3CCN(c4ccc(C(=O)N[C@H]5CC[C@H](Oc6ccc(C#N)c(Cl)c6)CC5)nn4)CC3)cc2F)c2cc[nH]c2c1=O` [I-109]: the 50% inhibitory concentration (IC50) in experiment [3] was in the range of 50 to 500 nM. Still for that read-out and setting: the result for `Cn1cc(-c2cc(C(C)(C)O)ccc2O[C@H]2C[C@H](N(C)CC3CCN(c4ccc(C(=O)N[C@H]5CC[C@H](Oc6ccc(C#N)c(Cl)c6)CC5)nn4)CC3)C2)c2cc[nH]c2c1=O` [I-158, N-((1r,4r)-4-(3-chloro-4-cyanophenoxy)cyclohexyl)-6-(4-((((1r,3r)-3-(4-(2-hydroxypropan-2-yl)-2-(6-methyl-7-oxo-6,7-dihydro-1H-pyrrolo[2,3-c]pyridin-4-yl)phenoxy)cyclobutyl)(methyl)amino)methyl)piperidin-1-yl)pyridazine-3-carboxamide] reads 500 to 2500 nM.
